pIC50: −log10 of the molar value. Calls of active or inactive are those of the source. The rule behind the calls is not given here.
Test system: Leishmania donovani
Assay: Antileishmanial activity against amastigote stage of Leishmania donovani MHOM/ET/67/HU3 infected in mouse RAW264.7 cells assessed as inhibition of parasite growth after 48 hrs by SYBR green I incorporation assay
Type: functional, organism-based
Conditions: for pIC50: MHOM/ET/67/HU3, RAW264.7, 48 h

SMILES	growth inhibition (GI)	pIC50
CC(=O)OC[C@H]1O[C@@H](n2cc(-c3cc(-c4ccccc4)on3)c(=O)[nH]c2=O)C[C@@H]1N=[N+]=[N-]	inactive	
CC(=O)OC[C@H]1O[C@@H](n2cc(-c3cc(-c4ccccc4)on3)c(=O)[nH]c2=O)[C@H](OC(C)=O)[C@@H]1OC(C)=O	inactive	
Nc1nc(=O)n([C@H]2C[C@H](O)[C@@H](CO)O2)cc1-c1cc(-c2ccccc2)on1		6.21
CC(=O)OC[C@H]1O[C@@H](n2cc(-c3cc(CO)on3)c(=O)[nH]c2=O)C[C@@H]1N=[N+]=[N-]		< 4.90
CCCCCCCCc1cc(-c2cn([C@H]3C[C@H](OC(C)=O)[C@@H](COC(C)=O)O3)c(=O)[nH]c2=O)no1		4.68
CC(=O)OC[C@H]1O[C@@H](n2cc(-c3cc(-c4ccccc4)on3)c(=O)[nH]c2=O)C[C@@H]1OC(C)=O	inactive	
O=c1[nH]c(=O)n([C@H]2C[C@H](O)[C@@H](CO)O2)cc1-c1cc(-c2ccccc2)on1		6.12
CC(=O)OC[C@H]1O[C@@H](n2cc(-c3cc(CO)on3)c(=O)[nH]c2=O)C[C@@H]1OC(C)=O		5.47
CCCCCCCCc1cc(-c2cn([C@H]3C[C@H](O)[C@@H](CO)O3)c(=O)[nH]c2=O)no1		< 4.90
CC(=O)OC[C@H]1O[C@@H](n2cc(-c3cc(-c4ccc(Br)cc4)on3)c(=O)[nH]c2=O)C[C@@H]1OC(C)=O	inactive	
CC(=O)OC[C@H]1O[C@@H](n2cc(-c3cc(-c4ccc(F)cc4)on3)c(=O)[nH]c2=O)C[C@@H]1OC(C)=O		6.15
CC(=O)OC[C@@H]1C=C[C@H](n2cc(-c3cc(-c4ccccc4)on3)c(=O)[nH]c2=O)O1	inactive	
CCCCCCCCCCCCCCCCOP(=O)([O-])OCC[N+](C)(C)C [MILTEFOSINE]		5.24
CC(=O)OC[C@H]1O[C@@H](n2cc(-c3cc(-c4ccc(C)cc4)on3)c(=O)[nH]c2=O)C[C@@H]1OC(C)=O		5.77
O=c1[nH]c(=O)n([C@H]2C[C@H](O)[C@@H](CO)O2)cc1-c1cc(-c2ccc(F)cc2)on1		6.24
O=c1[nH]c(=O)n([C@@H]2O[C@H](CO)[C@@H](O)[C@H]2O)cc1-c1cc(-c2ccc(F)cc2)on1		5.83
O=c1[nH]c(=O)n([C@H]2C=C[C@@H](CO)O2)cc1-c1cc(-c2ccccc2)on1		5.34
CC(=O)OC[C@H]1O[C@@H](n2cc(-c3cc(-c4ccc(F)cc4)on3)c(=O)[nH]c2=O)[C@H](OC(C)=O)[C@@H]1OC(C)=O		6.11
O=c1[nH]c(=O)n([C@H]2C[C@H](O)[C@@H](CO)O2)cc1-c1cc(CO)on1		6.14
[N-]=[N+]=N[C@H]1C[C@H](n2cc(-c3cc(CO)on3)c(=O)[nH]c2=O)O[C@@H]1CO		6.31
CC(=O)OC[C@H]1O[C@@H](n2cc(-c3cc(CO)on3)c(N)nc2=O)C[C@@H]1OC(C)=O		5.50
CC(=O)OC[C@H]1O[C@@H](n2cc(-c3cc(-c4ccc(F)cc4)on3)c(=O)[nH]c2=O)C[C@@H]1N=[N+]=[N-]		< 4.90
CC(=O)OC[C@H]1O[C@@H](n2cc(-c3cc(-c4ccccc4)on3)c(N)nc2=O)C[C@@H]1OC(C)=O		5.79
C[C@@H]1[C@H](O)[C@@H](C)/C=C/C=C/C=C/C=C/C=C/C=C/C=C/[C@H](O[C@@H]2O[C@H](C)[C@@H](O)[C@H](N)[C@@H]2O)C[C@@H]2O[C@](O)(C[C@@H](O)C[C@@H](O)[C@H](O)CC[C@@H](O)C[C@@H](O)CC(=O)O[C@H]1C)C[C@H](O)[C@H]2C(=O)O [AMPHOTERICIN B]		6.51
Cc1ccc(-c2cc(-c3cn([C@H]4C[C@H](O)[C@@H](CO)O4)c(=O)[nH]c3=O)no2)cc1		6.21
CC(=O)OC[C@H]1O[C@@H](n2cc(-c3cc(CBr)on3)c(=O)[nH]c2=O)C[C@@H]1OC(C)=O	inactive	

From ChEMBL document CHEMBL3588854, “Synthesis of 5-isoxazol-3-yl-pyrimidine nucleosides as potential antileishmanial agents” (Bioorg Med Chem Lett, 2015)
